# According to PubChem BioAssay (NCI):
#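 Where inhibition never reached the appropriate level, the endpoint shown equals the highest concentration tested. Otherwise, values were interpolated linearly from a five-concentration, 48-hour dose response in 96-well plates. Abbreviation: GI50, concentration required for 50% inhibition of growth. TGI marks complete inhibition of growth.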
# Columns and labels:
# Assay in all cases: NCI-60 cell line screen, 48 h
# HOP-92 NSCLC = system: HOP-92 NSCLC
# SK-MEL-5 melanoma = system: SK-MEL-5 melanoma
# UO-31 renal = system: UO-31 renal
# HS 578T breast = system: HS 578T breast
# CAKI-1 renal = system: CAKI-1 renal
# M14 melanoma = system: M14 melanoma
# BT-549 breast = system: BT-549 breast
# SN12C renal = system: SN12C renal
# OVCAR-3 ovarian = system: OVCAR-3 ovarian
# SF-539 CNS = system: SF-539 CNS
# KM12 colon = system: KM12 colon
# MCF7 breast = system: MCF7 breast
# RPMI-8226 leukemia = system: RPMI-8226 leukemia
# NCI-H226 lung = system: NCI-H226 lung
# IGROV1 ovarian = system: IGROV1 ovarian
# OVCAR-4 ovarian = system: OVCAR-4 ovarian
# A549 NSCLC = system: A549 NSCLC
# HL-60(TB) leukemia = system: HL-60(TB) leukemia
# SK-OV-3 ovarian = system: SK-OV-3 ovarian
# MOLT-4 leukemia = system: MOLT-4 leukemia
# SW-620 colon = system: SW-620 colon
# UACC-257 melanoma = system: UACC-257 melanoma
# EKVX NSCLC = system: EKVX NSCLC
# SK-MEL-2 melanoma = system: SK-MEL-2 melanoma
# K-562 leukemia = system: K-562 leukemia
# TK-10 renal = system: TK-10 renal
# PC-3 prostate = system: PC-3 prostate
# RXF 393 renal = system: RXF 393 renal
# NCI/ADR-RES ovarian = system: NCI/ADR-RES ovarian
# HT29 colon = system: HT29 colon
# HCT-116 colon = system: HCT-116 colon
# MALME-3M melanoma = system: MALME-3M melanoma
# OVCAR-5 ovarian = system: OVCAR-5 ovarian
# 786-0 renal = system: 786-0 renal
# HCT-15 colon = system: HCT-15 colon
# SF-268 CNS = system: SF-268 CNS
# U251 CNS = system: U251 CNS
# UACC-62 melanoma = system: UACC-62 melanoma
# NCI-H460 lung = system: NCI-H460 lung
# CCRF-CEM leukemia = system: CCRF-CEM leukemia
# SNB-19 CNS = system: SNB-19 CNS
# NCI-H522 lung = system: NCI-H522 lung
# OVCAR-8 ovarian = system: OVCAR-8 ovarian
# SR leukemia = system: SR leukemia
# SF-295 CNS = system: SF-295 CNS
# HOP-62 NSCLC = system: HOP-62 NSCLC
# LOX IMVI melanoma = system: LOX IMVI melanoma
# A498 renal = system: A498 renal
# T-47D breast = system: T-47D breast
# MDA-MB-231 breast = system: MDA-MB-231 breast
# SK-MEL-28 melanoma = system: SK-MEL-28 melanoma
# SNB-75 CNS = system: SNB-75 CNS
# MDA-MB-435 = system: MDA-MB-435
# DU-145 prostate = system: DU-145 prostate
# COLO 205 colon = system: COLO 205 colon
# HCC-2998 colon = system: HCC-2998 colon
# ACHN renal = system: ACHN renal
smiles,measurement,setting,value
O=C(Nc1cc(Cl)cc(Cl)c1)Nc1ccc2oc(=O)ccc2c1,GI50,HOP-92 NSCLC,1.86 µM
same,TGI,HOP-92 NSCLC,5.52 µM
same,GI50,SK-MEL-5 melanoma,1.66 µM
same,TGI,SK-MEL-5 melanoma,3.11 µM
same,GI50,UO-31 renal,1.94 µM
same,TGI,UO-31 renal,7.48 µM
same,GI50,HS 578T breast,3.14 µM
same,TGI,HS 578T breast,14.5 µM
same,GI50,CAKI-1 renal,2.28 µM
same,TGI,CAKI-1 renal,7.49 µM
same,GI50,M14 melanoma,3.39 µM
same,TGI,M14 melanoma,11.9 µM
same,GI50,BT-549 breast,2.86 µM
same,TGI,BT-549 breast,9.06 µM
same,GI50,SN12C renal,2.92 µM
same,TGI,SN12C renal,10.6 µM
same,GI50,OVCAR-3 ovarian,3.24 µM
same,TGI,OVCAR-3 ovarian,13.1 µM
same,GI50,SF-539 CNS,2.9 µM
same,TGI,SF-539 CNS,8.98 µM
same,GI50,KM12 colon,3.05 µM
same,TGI,KM12 colon,10.8 µM
same,GI50,MCF7 breast,2.28 µM
same,TGI,MCF7 breast,8.09 µM
same,GI50,RPMI-8226 leukemia,1.53 µM
same,TGI,RPMI-8226 leukemia,4.89 µM
same,GI50,NCI-H226 lung,2.67 µM
same,TGI,NCI-H226 lung,8.81 µM
same,GI50,IGROV1 ovarian,3.28 µM
same,TGI,IGROV1 ovarian,15.1 µM
same,GI50,OVCAR-4 ovarian,3.23 µM
same,TGI,OVCAR-4 ovarian,14.1 µM
same,GI50,A549 NSCLC,2.9 µM
same,TGI,A549 NSCLC,12.2 µM
same,GI50,HL-60(TB) leukemia,1.27 µM
same,TGI,HL-60(TB) leukemia,4.43 µM
same,GI50,SK-OV-3 ovarian,2.24 µM
same,TGI,SK-OV-3 ovarian,5.7 µM
same,GI50,MOLT-4 leukemia,2.32 µM
same,TGI,MOLT-4 leukemia,7.31 µM
same,GI50,SW-620 colon,3.5 µM
same,TGI,SW-620 colon,13.5 µM
same,GI50,UACC-257 melanoma,2.23 µM
same,TGI,UACC-257 melanoma,6.78 µM
same,GI50,EKVX NSCLC,2.87 µM
same,TGI,EKVX NSCLC,12.4 µM
same,GI50,SK-MEL-2 melanoma,2.03 µM
same,TGI,SK-MEL-2 melanoma,4.84 µM
same,GI50,K-562 leukemia,2.34 µM
same,TGI,K-562 leukemia,18 µM
same,GI50,TK-10 renal,3.12 µM
same,TGI,TK-10 renal,9.51 µM
same,GI50,PC-3 prostate,1.9 µM
same,TGI,PC-3 prostate,11 µM
same,GI50,RXF 393 renal,2.57 µM
same,TGI,RXF 393 renal,6.72 µM
same,GI50,NCI/ADR-RES ovarian,2.47 µM
same,TGI,NCI/ADR-RES ovarian,8.91 µM
same,GI50,HT29 colon,2.59 µM
same,TGI,HT29 colon,9.86 µM
same,GI50,HCT-116 colon,2.31 µM
same,TGI,HCT-116 colon,8.7 µM
same,GI50,MALME-3M melanoma,2.64 µM
same,TGI,MALME-3M melanoma,7.42 µM
same,GI50,OVCAR-5 ovarian,3.19 µM
same,TGI,OVCAR-5 ovarian,12.1 µM
same,GI50,786-0 renal,3.08 µM
same,TGI,786-0 renal,11.7 µM
same,GI50,HCT-15 colon,2.69 µM
same,TGI,HCT-15 colon,10.9 µM
same,GI50,SF-268 CNS,3.91 µM
same,TGI,SF-268 CNS,17.2 µM
same,GI50,U251 CNS,2.43 µM
same,TGI,U251 CNS,7.51 µM
same,GI50,UACC-62 melanoma,2.92 µM
same,TGI,UACC-62 melanoma,12.3 µM
same,GI50,NCI-H460 lung,2.27 µM
same,TGI,NCI-H460 lung,7.39 µM
same,GI50,CCRF-CEM leukemia,2.3 µM
same,TGI,CCRF-CEM leukemia,7.62 µM
same,GI50,SNB-19 CNS,3.73 µM
same,TGI,SNB-19 CNS,15.2 µM
same,GI50,NCI-H522 lung,1.39 µM
same,TGI,NCI-H522 lung,4.01 µM
same,GI50,OVCAR-8 ovarian,2.73 µM
same,TGI,OVCAR-8 ovarian,11 µM
same,GI50,SR leukemia,1.98 µM
same,TGI,SR leukemia,5.82 µM
same,GI50,SF-295 CNS,2.34 µM
same,TGI,SF-295 CNS,6.05 µM
same,GI50,HOP-62 NSCLC,2.98 µM
same,TGI,HOP-62 NSCLC,9.87 µM
same,GI50,LOX IMVI melanoma,2.04 µM
same,TGI,LOX IMVI melanoma,4.66 µM
same,GI50,A498 renal,2.59 µM
same,TGI,A498 renal,7.07 µM
same,GI50,T-47D breast,1.93 µM
same,TGI,T-47D breast,7.5 µM
same,GI50,MDA-MB-231 breast,2.75 µM
same,TGI,MDA-MB-231 breast,7.87 µM
same,GI50,SK-MEL-28 melanoma,3.71 µM
same,TGI,SK-MEL-28 melanoma,13.7 µM
same,GI50,SNB-75 CNS,2.24 µM
same,TGI,SNB-75 CNS,14 µM
same,GI50,MDA-MB-435,2.77 µM
same,TGI,MDA-MB-435,10.2 µM
same,GI50,DU-145 prostate,3.87 µM
same,TGI,DU-145 prostate,13.8 µM
same,GI50,COLO 205 colon,2.19 µM
same,TGI,COLO 205 colon,4.63 µM
same,GI50,HCC-2998 colon,3.24 µM
same,TGI,HCC-2998 colon,11.4 µM
same,GI50,ACHN renal,3.3 µM
same,TGI,ACHN renal,11.2 µM
